The subject of one data set is Cx. pipiens complex. To be noted: five field populations; cited from earlier work.
Data set [1] has as its system Culex pipiens/quinquefasciatus. As to the kind of experiment: CDC bottle bioassay (AI residue). In kind it is in vivo. To be noted: 30 min DT; for mortality at the DT: 8 μg/mL residue. On the procedure:
(§1) Separate mosquitoes from the same populations used in wind tunnel experiments were also used in bottle bioassays, except for Ae. albopictus, F1, Craven County, NC that were used in wind tunnel but not bottle bioassays due to low sample size. Female mosquitoes (4-5 d old) were aspirated from colony cages, transferred to 500 mL glass Wheaton bottles (N=11-20 mosquitoes in each of three to four replicate bottles), and exposed constantly to technical grade permethrin AI residue (8 μg/mL) (Chem Service, Westchester, Pennsylvania) for a 120 min period using established CDC bottle bioassay methods and mortality was monitored/recorded at 0, 15, 30, 60, and 120 min (CDC 2013, 2019; Richards et al. 2017ab, 2019). Bottle bioassay control groups were transferred to clean bottles following the same established methods (CDC 2013, 2019; Richards et al. 2017ab, 2019). Diagnostic dose and diagnostic time (DT) were determined using susceptible populations of Ae. albopictus and Cx. quinquefasciatus (data not shown).
(§2) Female mosquitoes (4-5 d old) were aspirated from a separate colony cages, transferred to 500 mL glass Wheaton bottles, and exposed to AI residue using established CDC bottle bioassay methods and mortality was monitored/recorded at 15, 30, 60, and 120 min (FIG. 8). Bottle bioassay control groups were transferred to clean bottles following established methods (CDC 2013, 2019). At the 30 min DT for permethrin, Ae. albopictus, F48, Orleans Parish, Ae. albopictus, F0, New Hanover County, and Cx. pipiens quinquefasciatus, F219, Johannesburg were classified as susceptible (100% mortality at the DT); however, Cx. pipiens/quinquefasciatus, F1, New Hanover County (69% mortality) and Cx. pipiens/quinquefasciatus, F1, Pitt County County (57% mortality) were classified as resistant. FIG. 9 is a bar graph of the mortality of types of mosquitoes in the wind tunnel during bioassay exposure to permethrin.

A further data set deals with Aedes albopictus. As to the kind of experiment: CDC bottle bioassay (AI residue). In kind it is in vivo. The note with it: 30 min DT, Ae. albopictus; for mortality at the DT: 8 μg/mL residue. Here is the method:
as §1, §2

The mark [2] stands for this setting: Cx. pipiens quinquefasciatus, F219, Johannesburg.
The mark [3] stands for this setting: Cx. pipiens/quinquefasciatus, F1, New Hanover County.
The mark [4] stands for this setting: Cx. pipiens/quinquefasciatus, F1, Pitt County.

Data on two molecules can be found in US12590864B2, “Wind tunnel for assessment of insecticides” (EAST CAROLINA UNIVERSITY, priority 2023, dated 2026).

Consider `CC(C)=CC1C(C(=O)OCc2cccc(Oc3ccccc3)c2)C1(C)C` (stereo not drawn) [Sumethrin®, d-phenothrin], for which the resistance classification result in the data set on Cx. pipiens complex is given as “resistant”.

A word on the mortality: it is the share of the test organisms that died. A lower mortality goes with a weak lethal effect. Regarding `CC1(C)C(C=C(Cl)Cl)C1C(=O)OCc1cccc(Oc2ccccc2)c1` (centres unmarked) [permethrin], the “mortality at the DT” value is given as 100% in data set [1] (setting [2]); 69% in data set [1] (setting [3]); 57% in data set [1] (setting [4]); 100% with Aedes albopictus (F0, New Hanover County); 100% in the data set on Aedes albopictus (F48, Orleans Parish). Moreover, the resistance classification entry in data set [1] (setting [2]) is “susceptible”; in data set [1] (setting [3]), “resistant”; in data set [1] (setting [4]), “resistant”; with Aedes albopictus (F0, New Hanover County), “susceptible”; in the data set on Aedes albopictus (F48, Orleans Parish), “susceptible”.
